Laboratory results published in US7247734B2 (Vernalis (Cambridge) Limited, priority 2001, dated 2007).

Molecular target: T1, yeast HSP90 (Saccharomyces cerevisiae, UniProt P02829)
T1 construct: made in house; host or cells: E. coli
Test: Malachite green HSP90 ATPase assay
Assay type: biochemical
Details: ATPase IC50, activity range, ATPase assay
Source text: Two methods have been developed to measure the intrinsic ATPase activity of HSP90, using yeast HSP90 as a model system. The first method utilises a regenerating coupled enzyme assay. The second assay, based on the use of malachite green for the measurement of inorganic phosphate, was designed for high throughput screening (HTS) to identify novel HSP90 inhibitor drug candidates.
Colorimetric assays for the determination of phosphate, based on the formation of a phosphomolybdate complex, can be carried out in a few steps with inexpensive reagents and are well suited to the automation required for high throughput screening (see, e.g., Cogan et al., 1999). Enzymes that release inorganic phosphate are assayed using the reaction of the cationic dye, malachite green, with the a complex formed by a reaction of the inorganic phosphate with molybdate to generate a blue-green colour with an absorbance maximum at 610 nm (see, e.g., Baykov et al., 1988; Harder et al., 1994; Maehama et al., 2000). The method has been used in both high throughput (see, e.g., Rumsfeld et al., 2000) and ultra-high throughput screening formats (see, e.g., Layery et al., 2001) for a variety of non-HSP90 ATPases. However, this method is complicated by the non-enzymatic hydrolysis of ATP in the presence of acidic malachite green reagent, causing an increase in colour (see, e.g., Chan et al., 1986; Henkel et al., 1988). This process is mediated by molybdate and can be overcome by the addition of sodium citrate immediately after the reagent (see, e.g., Lanzetta et al., 1979; Schirmer et al., 1998; Baginski et al., 1975). This modification has been adapted to the 96-well microtitre plate assay previously described for other ATPases (see, e.g., Lanzetta et al., 1979) to produce the following protocol for HSP90 ATPase, which is suitable for high throughput screening.
Chemicals are of the highest purity commercially available and all aqueous solutions are made up in AR water. Because of the need to minimise contamination with inorganic phosphate, precautions should be taken with solutions and apparatus used in the assays. Glassware and pH meters are rinsed with double distilled or deionised water before use and, wherever possible, plastic ware should be used. Gloves are worn for all procedures. • (1) Immulon 96-well (Thermo Labsystems, Basingstoke, UK) or Cliniplate 384-well flat-bottomed polystyrene multiwell plates (Thermo Labsystems). • (2) Assay buffer of (a) 100 mM Tris-HCl, pH 7.4, (b) 20 mM KCl, (c) 6 mM MgCl2. Stored at 4° C. • (3) 0.0812% (w/v) malachite green (M 9636, Sigma Aldrich Ltd., Poole, UK). Stored at room temperature. • (4) 2.32% (w/v) polyvinyl alcohol USP (P 1097, Sigma Aldrich Ltd, Poole, UK) in boiling water (see Comment 1), allowed to cool, and stored at room temperature. • (5) 5.72% (w/v) ammonium molybdate in 6 M hydrochloric acid. Stored at room temperature. • (6) 34% (w/v) sodium citrate. Stored at room temperature. • (7) ATP, disodium salt, special quality (519979, Boehringer Mannheim, Lewes, UK). Stored at 4° C. • (8) E. coli expressed yeast HSP90 protein, purified >95% (see, e.g., Panaretou et al., 1998) and stored at −80° C. as 10 μl aliquots containing 0.5 mg of protein. Method
The following protocol was used: • (1) On the day of use, prepare the malachite green reagent from the stock solutions. Mix (a) 2 parts of malachite green, (b) 1 part of polyvinyl alcohol, (c) 1 part of ammonium molybdate, and (d) 2 parts of water. Initially, the reagent is a dark brown colour, but after standing at room temperature for about 2 h, this becomes a golden yellow colour and is ready for use. • (2) For the high throughput screening assays, the test compounds are dissolved at 200 μM in 2.0% DMSO and contained in daughter plates derived from the chemical libraries. Transfer 5 μl of each sample from the daughter plate to each well of the assay plate using automated equipment (see Comment 3). This represents a final concentration in the well of 40 μM.

T1 sequence (P02829 whole entry, looked up): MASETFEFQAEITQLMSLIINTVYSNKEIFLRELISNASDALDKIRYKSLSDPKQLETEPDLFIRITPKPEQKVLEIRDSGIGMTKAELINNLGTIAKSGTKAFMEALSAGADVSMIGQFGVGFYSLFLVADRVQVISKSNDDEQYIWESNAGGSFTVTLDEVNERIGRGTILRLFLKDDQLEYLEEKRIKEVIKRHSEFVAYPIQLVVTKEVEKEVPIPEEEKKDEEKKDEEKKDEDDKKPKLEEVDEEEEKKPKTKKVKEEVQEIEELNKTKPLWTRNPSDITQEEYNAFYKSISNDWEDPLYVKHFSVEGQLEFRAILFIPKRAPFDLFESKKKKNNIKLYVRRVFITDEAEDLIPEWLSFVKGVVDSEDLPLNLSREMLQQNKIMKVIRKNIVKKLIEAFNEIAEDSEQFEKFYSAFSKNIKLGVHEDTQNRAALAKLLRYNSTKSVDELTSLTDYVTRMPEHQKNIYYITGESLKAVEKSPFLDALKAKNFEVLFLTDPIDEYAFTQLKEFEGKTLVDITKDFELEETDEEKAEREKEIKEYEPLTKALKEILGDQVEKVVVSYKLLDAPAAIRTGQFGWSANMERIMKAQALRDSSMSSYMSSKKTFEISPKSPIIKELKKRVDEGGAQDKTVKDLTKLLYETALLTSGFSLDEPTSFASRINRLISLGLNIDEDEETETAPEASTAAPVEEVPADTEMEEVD

In the case of `COc1ccc(-c2c(-c3cc(Cl)c(O)cc3O)n[nH]c2C(=O)O)cc1` [Example 167, 5-(5-Chloro-2,4-dihydroxy-phenyl)-4-(4-methoxy-phenyl)-2H-pyrazole-3-carboxylic acid], the IC50 is reported as < 50 µM.

Same assay, conditions: Hsp90 IC50, activity class

First: Cc1[nH]nc(-c2ccc(O)cc2O)c1-c1ccc2c(c1)OCCO2 [Example 81]
Second: COc1ccc(-c2c(-c3cc(Br)c(O)cc3O)n[nH]c2C)cc1 [Example 93, 4-Bromo-6-[4-(4-methoxy-phenyl)-5-methyl-1H-pyrazol-3-yl]-benzene-1,3-diol]
The IC50 of the first is higher: 10 to 100 µM for the first, < 10 µM for the second.

Same assay, conditions: activity class; read-out: Hsp90 IC50

`Cc1[nH]nc(-c2ccc(C(=O)O)cc2)c1-c1ccc2c(c1)OCCO2` [Example 115] and `CC(=O)Nc1ccc(-c2n[nH]c(C)c2-c2ccc3c(c2)OCCO3)cc1` [Example 112] cannot be ordered by IC50: > 10 µM for the first, > 10 µM for the second.

`O=C(NCc1ccc(-c2c[nH]nc2-c2cc(Cl)c(O)cc2O)cc1)c1ccc(-c2c3ccc(=O)cc-3oc3cc(O)ccc23)c(C(=O)O)c1` [Example 106, N-{4-[3-(5-Chloro-2,4-dihydroxy-phenyl)-1H-pyrazol-4-yl]-benzyl}-6-(6-hydroxy-3-oxo-3H-xanthen-9-yl)-isophthalamic acid] and `Cc1c(CC(=O)NCc2ccc(-c3c[nH]nc3-c3cc(Cl)c(O)cc3O)cc2)c(=O)oc2cc(N)c(S(=O)(=O)O)cc12` [Example 105] cannot be ordered by IC50: < 10 µM for the first, < 10 µM for the second.

Going from `COc1ccc(-c2c(-c3cc(-c4ccccc4)c(O)cc3O)n[nH]c2C)cc1` [Example 94] to `Cc1[nH]nc(-c2cc(Cl)c(O)cc2O)c1-c1ccccc1` [Example 127], the IC50 rises from < 10 µM to > 10 µM.

Compared with `Cc1[nH]nc(-c2cc(Cl)ccc2O)c1-c1ccc2c(c1)OCCO2` [Example 107], `Cc1[nH]nc(-c2cc(F)ccc2O)c1-c1ccc2c(c1)OCCO2` [Example 108] is lower in IC50: 10 to 100 µM for the first, < 10 µM for the second.

`CCc1cc(-c2n[nH]cc2-c2nc(C)cs2)c(O)cc1OCc1cccc(C)c1` [Example 124] and `CCc1cc(-c2n[nH]cc2-c2nc(C)cs2)c(O)cc1OC` [Example 131] cannot be ordered by IC50: > 10 µM for the first, > 10 µM for the second.

`Oc1cc(O)c(-c2n[nH]cc2-c2ccccc2)cc1Cl` [Example 53] and `CCc1cc(-c2n[nH]cc2-c2ccccc2)c(O)cc1O` [Example 54] cannot be ordered by IC50: < 10 µM for the first, < 10 µM for the second.

`CCc1cc(-c2n[nH]c(C)c2-c2nc3ccccc3n2C)c(O)cc1O` [Example 82] and `CCc1cc(-c2n[nH]c(C)c2-c2nc3ccccc3s2)c(O)cc1O` [Example 146] cannot be ordered by IC50: 10 to 100 µM for the first, > 10 µM for the second.

`CCCc1cc(-c2[nH]ncc2-c2ccc(C(=O)OCC)o2)c(O)cc1O` [Example 97] and `CCCc1cc(-c2n[nH]c(C)c2-c2ccc(C(=O)OCC)o2)c(O)cc1O` [Example 98] fall in the same range of IC50: 10 to 100 µM for the first, 10 to 100 µM for the second.

`Oc1cc(O)c(-c2n[nH]cc2-c2cccc(OCCF)c2)cc1Cl` [Example 67] and `N#CCCCOc1cccc(-c2c[nH]nc2-c2cc(Cl)c(O)cc2O)c1` [Example 73] cannot be ordered by IC50: < 10 µM for the first, < 10 µM for the second.

`Cc1[nH]nc(-c2ccc(S(N)(=O)=O)cc2)c1-c1ccc2c(c1)OCCO2` [Example 111] and `Cc1[nH]nc(-c2cccc(Cl)c2Cl)c1-c1ccc2c(c1)OCCO2` [Example 150] cannot be ordered by IC50: > 10 µM for the first, > 10 µM for the second.

`CCc1cc(-c2n[nH]c(C)c2-c2nc3ccccc3s2)c(O)cc1OCC(=O)NN` [Example 119] and `CCc1cc(-c2n[nH]c(C(F)(F)F)c2-c2nc3ccccc3s2)c(O)cc1O` [Example 84] cannot be ordered by IC50: > 10 µM for the first, 10 to 100 µM for the second.

`Oc1cc(O)c(-c2n[nH]cc2-c2ccc(Br)cc2)cc1Cl` [Example 57] and `Oc1ccc(-c2c[nH]nc2-c2cc(Cl)c(O)cc2O)cc1` [Example 76] cannot be ordered by IC50: < 10 µM for the first, < 10 µM for the second.

`Cc1[nH]nc(-c2ccc3c(c2O)OCO3)c1-c1ccc2c(c1)OCCO2` [Example 121] and `Cc1[nH]nc(-c2ccc(O)cc2O)c1-c1ccc2c(c1)OCCCO2` [Example 86] cannot be ordered by IC50: > 10 µM for the first, > 10 µM for the second.

`Oc1cc(O)c(-c2n[nH]cc2-c2ccccc2Br)cc1Cl` [Example 60] and `Oc1cc(O)c(-c2n[nH]cc2-c2ccccc2F)cc1Cl` [Example 65] cannot be ordered by IC50: < 10 µM for the first, < 10 µM for the second.

`Oc1ccc(-c2n[nH]c(C(F)(F)F)c2-c2ccc3c(c2)OCCO3)c(O)c1` [Example 142] and `CCCc1cc(-c2n[nH]c(C)c2-c2ccc3c(c2)OCCO3)c(O)cc1O` [Example 88] cannot be ordered by IC50: > 10 µM for the first, 10 to 100 µM for the second.

`Cc1n[nH]c(-c2cc(Cl)c(O)cc2O)c1-c1ccc(OCCCC#N)cc1` [Example 70] and `N#CCCCCOc1cccc(-c2c[nH]nc2-c2cc(Cl)c(O)cc2O)c1` [Example 155] cannot be ordered by IC50: < 10 µM for the first, < 10 µM for the second.

First: CCc1cc(-c2n[nH]cc2-c2ncc(C)s2)c(O)cc1O [Example 101]
Second: CCc1cc(-c2n[nH]cc2-c2ccc3c(c2)OCO3)c(O)cc1O [Example 87]
The IC50 of the first is higher: 10 to 100 µM for the first, < 10 µM for the second.

`COc1ccc(-c2c(-c3ccc(O)c(C)c3O)n[nH]c2C)cc1` [Example 132] and `Cc1[nH]nc(-c2ccc(OCC(=O)O)cc2O)c1-c1ccc(F)cc1` [Example 123] cannot be ordered by IC50: > 10 µM for the first, > 10 µM for the second.

`COc1ccc(-c2c(C)n[nH]c2-c2cc(C)nc(N)n2)cc1` [Example 152, 4-[4-(4-Methoxy-phenyl)-5-methyl-2H-pyrazol-3-yl]-6-methyl-pyrimidin-2-ylamine] and `Cc1[nH]nc(-c2ccc(O)cc2O)c1-c1cnn(-c2ccccc2)c1` [Example 137] cannot be ordered by IC50: > 10 µM for the first, > 10 µM for the second.

First: COc1ccc(-c2ccc(-c3c[nH]nc3-c3cc(Cl)c(O)cc3O)cc2)cc1OC [Example 157]
Second: COc1ccccc1-c1c[nH]nc1-c1cc(Cl)c(O)cc1O [Example 71]
The IC50 of the first is lower: < 10 µM for the first, 10 to 100 µM for the second.

First: Cc1ncc(-c2c(-c3ccc(O)cc3O)n[nH]c2C(F)(F)F)s1 [Example 143]
Second: Oc1cc(O)c(-c2n[nH]cc2-c2cccc(Br)c2)cc1Cl [Example 66]
The IC50 of the first is higher: > 10 µM for the first, < 10 µM for the second. The second is the more potent here.

`CCCc1cc(-c2n[nH]cc2-c2ccccc2)c(O)cc1OC` [Example 126] and `CCc1cc(-c2n[nH]cc2-c2ccccc2)c(O)cc1OC` [Example 128] cannot be ordered by IC50: > 10 µM for the first, > 10 µM for the second.

Compared with `O=C(O)COc1ccc(-c2n[nH]cc2-c2ccc3c(c2)OCCO3)c(O)c1` [Example 125], `CCc1cc(-c2n[nH]cc2-c2ccc3c(c2)OCCO3)c(O)cc1O` [Example 83] is lower in IC50: > 10 µM for the first, < 10 µM for the second.

Same assay, conditions: activity range, ATPase assay; read-out: ATPase IC50

`CNC(=O)c1ccc(-c2c[nH]nc2-c2cc(Cl)c(O)cc2O)cc1` [Example 180] and `NC(=O)c1ccc(-c2c[nH]nc2-c2cc(Cl)c(O)cc2O)cc1` [Example 181] cannot be ordered by IC50: < 50 µM for the first, < 50 µM for the second.

Compared with `COc1ccc(-c2c(C)n[nH]c2-c2cc(C(=O)NN)c(O)cc2O)cc1` [Example 178], `COc1ccc(-c2c(-c3cc(Cl)c(O)cc3O)n[nH]c2Br)cc1` [Example 179, 4-[5-Bromo-4-(4-methoxy-phenyl)-1H-pyrazol-3-yl]-6-chloro-benzene-1,3-diol] is lower in IC50: > 50 µM for the first, < 50 µM for the second.

`Oc1cc(O)c(-c2n[nH]cc2-c2cncnc2)cc1Cl` [Example 177] and `Oc1cc(O)c(-c2n[nH]cc2-c2ccncc2)cc1Cl` [Example 175] cannot be ordered by IC50: < 50 µM for the first, < 50 µM for the second.

`Cc1[nH]nc(-c2ccc(C(=O)Nc3cccnc3)cc2)c1-c1ccc2c(c1)OCCO2` [Example 160] and `Cc1[nH]nc(-c2ccc(C(N)=O)cc2)c1-c1ccc2c(c1)OCCO2` [Example 158] cannot be ordered by IC50: > 50 µM for the first, > 50 µM for the second.

Same assay, conditions: malachite green assay, 1 mM ATP; ±SD if n=3–5; read-out: HSP90 ATPase inhibition IC50

Going from `CCCc1cc(-c2n[nH]c(C)c2-c2ccc3c(c2)OCCO3)c(O)cc1O` [CCT018156] to `CCCc1cc(-c2n[nH]c(C)c2-c2ccc3c(c2)OCO3)c(O)cc1O` [CCT018158], the IC50 falls from 52.8 ± 12 µM to 19 µM (2.8-fold).
